The assay has as its target T1, PKCβ2 (Homo sapiens, UniProt P05771).
T1 construct: mononucleated cells constitutively expressed PKC isoforms α, β1, β2, γ, l/λ and ζ; endogenous in cells; host or cells: mononucleated cells (monocytes)
Kind of assay: PKC isoform activation/translocation in mononucleated cells during P-stem cell differentiation. The settings on record: mononucleated cells pre-treated with Go6976 (1 μM) 30 minutes at 37° C., then Bryostatin-1 (10 nM) at designated time intervals; combined treatment; FIG. 4. In kind it is cell-based. As for the experimental part:
The constitutively expressed PKC isoforms in mononucleated cells are detected by Western Blot analysis with each PKC isoform-specific antibodies. […] In the FIG. 1, Mo and pc represents mononucleated cell and PKC positive cell lysate, respectively. To examine the specific activation of PKC isoform(s) iii the differentiation of P-stem cells, mononucleated cells are pre-treated with Go6976 (1 μM) for 30 minutes at 37° C. and then incubated with Brvostatin-1 (10 nM) at designated time intervals. […] Therefore, any substances stimulating the activation of PKCβ2 are capable of inducing the differentiation of P-stem cells.

T1 sequence (P05771 1-673 isoform P05771-2): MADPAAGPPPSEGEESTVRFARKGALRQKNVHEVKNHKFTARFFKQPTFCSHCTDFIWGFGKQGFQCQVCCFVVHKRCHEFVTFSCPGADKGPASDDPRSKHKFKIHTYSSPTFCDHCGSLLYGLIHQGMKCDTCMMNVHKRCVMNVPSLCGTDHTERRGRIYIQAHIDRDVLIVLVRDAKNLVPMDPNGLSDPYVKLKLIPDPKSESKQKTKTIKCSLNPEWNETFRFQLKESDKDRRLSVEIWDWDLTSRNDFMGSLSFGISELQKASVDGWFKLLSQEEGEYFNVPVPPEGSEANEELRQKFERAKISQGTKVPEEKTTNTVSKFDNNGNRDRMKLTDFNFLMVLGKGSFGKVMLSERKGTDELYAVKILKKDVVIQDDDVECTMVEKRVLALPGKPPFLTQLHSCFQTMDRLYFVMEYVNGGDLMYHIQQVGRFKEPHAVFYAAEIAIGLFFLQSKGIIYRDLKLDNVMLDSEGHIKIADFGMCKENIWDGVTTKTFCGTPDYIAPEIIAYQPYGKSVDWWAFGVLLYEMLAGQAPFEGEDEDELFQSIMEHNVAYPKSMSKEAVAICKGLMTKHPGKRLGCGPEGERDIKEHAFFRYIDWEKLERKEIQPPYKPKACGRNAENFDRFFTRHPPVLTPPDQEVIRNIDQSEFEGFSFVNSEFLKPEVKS

As for `CCC/C=C/C=C/C(=O)O[C@H]1/C(=C/C(=O)OC)C[C@H]2C[C@H]([C@@H](C)O)OC(=O)C[C@H](O)C[C@@H]3C[C@H](OC(C)=O)C(C)(C)[C@](O)(C[C@@H]4C/C(=C/C(=O)OC)C[C@H](/C=C/C(C)(C)[C@]1(O)O2)O4)O3` [Brvostatin-1, Bryostatin-1], the “specific activation of PKC isoform(s) (translocation from cytosol to plasma membrane)” value was “only PKCβ2 is activated and translocates from cytosol to plasma membrane”.

Consider `Cn1c2ccccc2c2c3c(c4c5ccccc5n(CCC#N)c4c21)CNC3=O` [Go6976], for which the “specific activation of PKC isoform(s) (translocation from cytosol to plasma membrane)” value was “only PKCβ2 is activated and translocates from cytosol to plasma membrane”.

(Values after patent US20090028830A1, “Preparation of multipotent stem cells and the use thereof” (priority 2005, published 2009).)
